{"source": "patent US10478431B2", "about": "“Methods for treating a cytomegalovirus infection” (priority 2014, dated 2019)", "key": {"HCMV": {"test_system": "HCMV", "assay": "HCMV infection across a range of virus concentrations, 10 days post-infection", "format": "cell-based, human CMV (hCMV)", "details": "wide range of virus concentrations, FIG. 23", "description": "All time points were taken at 10 days post-infection as described in Teng et al. Cell 2012 (cited herein)."}, "mCMV CRS sequence": {"test_system": "mCMV CRS sequence", "assay": "bisBenzimide binding assay (fluorescence), mCMV CRS saturation curve", "details": "BB33258 titrated from 10 μM to 1 nM; FIG. 18", "method": "(§1) Serial dilutions for each CRS sequence were prepared. Each CRS sequence was held constant at 10 μM while BB33258 was titrated from 10 μM to 1 nM. All assays were performed at room temperature (˜25° C. in DPBS). Serial dilutions were pipetted into 96-well glass bottom plate and allowed to equilibrate for 3 hours at room temperature in the dark. Plates were then assayed for fluorescence intensity using Perkin-Elmer EnSpyre multimode plate reader. Scans from 370 nm to 580 nm for each sequence were obtained. Dilution concentrations and BB33258 combinations that saturated the PMT were excluded."}, "Smith strain of MCMV": {"test_system": "Smith strain of MCMV", "assay": "Murine CMV replication kinetics in BALB/c mice", "format": "in vivo", "method": "(§2) Murine CMV (MCMV) replication kinetics were performed in BALB/c mice using the Smith strain of MCMV as previously described (Orr et al., 2010) and on NIH 3T3 cells using same methods as for HCMV. Rhesus CMV (RhCMV) viral replication kinetics were performed on rhesus fibroblast cells as described in (Lilja et al., 2008)."}, "[1]": {"test_system": "CMV AD169 (a laboratory strain of HCMV)", "assay": "Human CMV viral replication kinetics in MRCS cells (TCID50, PFU/ml)", "format": "cell-based, human CMV (hCMV)", "method": "MRCS cells were seeded into cell culture plates and maintained for 1 to 2 days until cells reached confluency at ˜5×10^4 cells per well. The monolayers were then infected with recombinant virus human CMV IE2-YFP or CMV-GFP as a control. HCMV IE2-YFP was used as the control virus for replication kinetics with the Δcrs IE2-YFP recombinant virus. Cells were infected at a multiplicity of infection (MOI) of 1, 0.2, or 0.1, as indicated. Inoculum was prepared using virus stocks diluted in culture media, and adsorbed onto cells in a volume of 200 μl for one hour at 37° C. in a humidified CO2 incubator. Inoculum was then removed and replaced with one mL of fresh media. The amount of infectious virus to prepare inoculum was based on plaque assay titrations (Bolovan-Fritts and Wiedeman, 2001) of virus stocks and is shown as time point 0 in each figure. For each time point three separate sample wells were collected. Infectious cell-free virus was collected by harvesting medium from infected culture wells at indicated time points and stored at −80° C. To measure replication, samples were thawed and prepared as a 10-fold serial dilution series in culture media, then analyzed by TCID50. The results were then converted to plaque-forming units per ml (PFU/ml). Error ranges were calculated using standard deviation."}, "Rhesus CMV (RhCMV)": {"test_system": "Rhesus CMV (RhCMV)", "assay": "Rhesus CMV viral replication kinetics on rhesus fibroblast cells", "format": "cell-based, rhesus monkey", "method": "as §2"}, "[2]": {"test_system": "latent CMV in N-Tera2 cells", "assay": "N-Tera2 latency assay (reactivation of latent CMV)", "format": "cell-based, human CMV (hCMV)", "details": "FIG. 4 lower panel, trihydrochloride hydrate", "method": "Reactivation of latent CMV in N-Tera2 cells was conducted as previously described in (Meier, 2001)."}, "[3]": {"test_system": "IE2 circuit in clinically derived CMV isolate TB40E", "assay": "Flow cytometry of TB40E infected ARPE cells", "format": "cell-based, human CMV (hCMV)", "details": "17 h and 20 h post infection, FIG. 21", "method": "Flow cytometry was performed on TB40E infected ARPE cells at 17 h and 20 h post infection. The data was analyzed as described in Teng et al. Cell 2012, cited herein."}, "[4]": {"test_system": "CRS sequences (tetranucleotide motif TTTA)", "assay": "bisBenzimide binding assay (fluorescence) with CRS sequences", "parameters": "species or system hCMV", "details": "CRS sequence 10 μM, BB33258 10 μM to 1 nM, room temperature, DPBS; FIGS. 15 and 16; trihydrochloride hydrate", "method": "as §1"}}, "note": "“Also recorded” adds a separate entry of the source. Where a name gives a salt, the structure may show the parent alone.", "data": [{"compound": "CN1CCN(c2ccc3[nH]c(-c4ccc5[nH]c(-c6ccc(O)cc6)nc5c4)nc3c2)CC1", "note": "[Hoechst 33258, 2′-(4-hydroxyphenyl)-5-(4-methyl-1-piperazinyl)-2,5′-bi-1H-benzimidazole trihydrochloride hydrate]", "values": [{"measurement": "HCMV infection", "setting": "HCMV", "result": "inhibits HCMV infection across a wide range of virus concentrations"}, {"measurement": "saturation of binding to mCMV CRS", "setting": "mCMV CRS sequence", "result": "did not saturate within the range of concentrations tested"}, {"measurement": "reduction of mCMV replication", "setting": "Smith strain of MCMV", "result": "~5", "unit": "fold"}, {"measurement": "reduction of hCMV replication", "setting": "[1]; FIG. 10", "result": "more than 100 fold"}, {"measurement": "HCMV viral replication", "setting": "[1]; MRCS cells, CMV AD169, 5, 10 or 20 μM Hoechst 33258, data in PFU/ml, FIG. 3, trihydrochloride hydrate", "result": "inhibited HCMV viral replication; also recorded: significantly reduced HCMV replication"}, {"measurement": "cytopathic effect (CPE) and plaque formation", "setting": "Rhesus CMV (RhCMV); DIC imaging, rhCMV-infected cells", "result": "reduced cytopathic effect (CPE) and plaque formation"}, {"measurement": "rhCMV replication", "setting": "Rhesus CMV (RhCMV); FIG. 11", "result": "inhibited rhCMV replication to an extent similar to Hoechst 33258 inhibition of hCMV replication"}, {"measurement": "inhibitory effect on rhCMV replication at various MOI and after multiple rounds of replication", "setting": "Rhesus CMV (RhCMV); FIG. 12", "result": "remains both at high MOI and also after multiple rounds of replication"}, {"measurement": "reactivation of latent CMV", "setting": "[2]", "result": "reactivated latent CMV; also recorded: reactivation of latent HCMV"}, {"measurement": "IE2 circuit / IE2 expression levels", "setting": "[3]", "result": "breaks the IE2 circuit and amplifies IE2 expression levels"}, {"measurement": "DNA binding specificity (motif)", "setting": "[4]", "result": "binds primarily to a specific tetranucleotide motif (TTTA)"}]}]}
